Data: patent publication US4388311A, “Method for the induction of menses” (G. D. Searle & Co., priority 1982, dated 1983)
Values joined by “and” are separate entries in the source; they are usually repeats but may differ in a detail not shown here. Equal entries are not always repeated.

How the values were obtained:
Assay type in all cases: in vivo, rat
pregnancy in rats [1] = assay: Pregnancy termination in rats, compounds administered intragastrically for four days (Table 1); settings: for Serum Progesterone ng/ml + S.E. / Serum Progesterone (Percent Control): serum day 11, 24 hours after initial injection
Description: (§1) The following tables list the results for a compound of Formula IV as compared with a control of previously known 2α-cyano-17β-hydroxy-3-oxo-4,4,17α-trimethylandrost-5-end(Cyanoketone) for termination of pregnancy.
(§2) ^1 Compounds were administered intragastrically once daily on days 10
through 13 of pregnancy in a vehicle consisting of PEG400, propylene
glycol and 100 percent ethanol (50:40:10, v:v:v). Serum for progesterone
determination was drawn on day 11 of pregnancy, 24 hours after the initia
injection of compound. The animals were autopsied on day 14 of pregnancy.

pregnancy in rats [2] = assay: Pregnancy termination in rats, compounds administered intragastrically on day 10 of pregnancy (Table 3); settings: autopsy day 14
Description: as §1, §2
of pregnancy in a vehicle consisting of PEG400, propylene glycol and 100
percent ethanol (50:40:10, v:v:v). Serum for progesterone determination
was drawn on day 11 of pregnancy, 24 hours after the initial injection of
(§3) compound. The animals were autopsied on day 14 of pregnancy.

pregnancy in rats [3] = assay: Termination of pregnancy in rats, compounds administered subcutaneously (Table 2)
Description: as §1
^1 Compounds given subcutaneously in corn oil vehicle once daily on
days 10 through 13 of pregnancy. Serum for progesterone determination was
drawn on day 11 of pregnancy, 24 hours after the initial injection of
as §3
^2 Serum progesterone values determined by RIA at Interlab Associates

[4] = 1 mg/kg/day intragastrically once daily days 10-13 of pregnancy, autopsy day 14
[5] = 2 mg/kg/day intragastrically days 10-13 of pregnancy
[6] = 2 mg/kg/day intragastrically once daily days 10-13 of pregnancy, autopsy day 14
[7] = 4 mg/kg/day intragastrically days 10-13 of pregnancy, 4 mg/kg/day
[8] = 4 mg/kg/day intragastrically once daily days 10-13 of pregnancy, autopsy day 14, 4 mg/kg/day
[9] = 8 mg/kg/day intragastrically days 10-13 of pregnancy
[10] = 8 mg/kg/day intragastrically once daily days 10-13 of pregnancy, autopsy day 14
[11] = 16 mg/kg/day intragastrically days 10-13 of pregnancy
[12] = 16 mg/kg/day intragastrically once daily days 10-13 of pregnancy, autopsy day 14
[13] = 32 mg/kg/day intragastrically days 10-13 of pregnancy
[14] = 32 mg/kg/day intragastrically once daily days 10-13 of pregnancy, autopsy day 14
[15] = 64 mg/kg/day intragastrically days 10-13 of pregnancy
[16] = 64 mg/kg/day intragastrically once daily days 10-13 of pregnancy, autopsy day 14
[17] = 128 mg/kg/day intragastrically days 10-13 of pregnancy
[18] = 128 mg/kg/day intragastrically once daily days 10-13 of pregnancy, autopsy day 14
[19] = 1 mg/kg intragastrically once on day 10 of pregnancy
[20] = 2 mg/kg intragastrically once on day 10 of pregnancy
[21] = 4 mg/kg intragastrically once on day 10 of pregnancy
[22] = 8 mg/kg intragastrically once on day 10 of pregnancy
[23] = 16 mg/kg intragastrically once on day 10 of pregnancy
[24] = 32 mg/kg intragastrically once on day 10 of pregnancy
[25] = 1 mg/kg/day subcutaneously days 10-13 of pregnancy, serum day 11, 24 hours after initial injection
[26] = 1 mg/kg/day subcutaneously in corn oil once daily days 10-13 of pregnancy, autopsy day 14
[27] = 2 mg/kg/day subcutaneously days 10-13 of pregnancy, serum day 11, 24 hours after initial injection
[28] = 2 mg/kg/day subcutaneously in corn oil once daily days 10-13 of pregnancy, autopsy day 14
[29] = 4 mg/kg/day subcutaneously days 10-13 of pregnancy, serum day 11, 24 hours after initial injection
[30] = 4 mg/kg/day subcutaneously in corn oil once daily days 10-13 of pregnancy, autopsy day 14
[31] = 8 mg/kg/day subcutaneously days 10-13 of pregnancy, serum day 11, 24 hours after initial injection
[32] = 8 mg/kg/day subcutaneously in corn oil once daily days 10-13 of pregnancy, autopsy day 14
[33] = 16 mg/kg/day subcutaneously days 10-13 of pregnancy, serum day 11, 24 hours after initial injection
[34] = 16 mg/kg/day subcutaneously in corn oil once daily days 10-13 of pregnancy, autopsy day 14, 16 mg/kg/day
[35] = 32 mg/kg/day subcutaneously days 10-13 of pregnancy, serum day 11, 24 hours after initial injection
[36] = 32 mg/kg/day subcutaneously in corn oil once daily days 10-13 of pregnancy, autopsy day 14

## CC1(C)C(=O)[C@H](C#N)C[C@@]2(C)C1=CC[C@@H]1[C@@H]2CC[C@@]2(C)[C@H]1CC[C@]2(C)O [Cyanoketone, 2α-cyano-17β-hydroxy-3-oxo-4,4,17α-trimethylandrost-5-end]
Pregnancy in rats [1]; 1 mg/kg/day intragastrically days 10-13 of pregnancy
  Serum Progesterone ng/ml + S.E.: 47.3 + 3.5 ng/ml
Pregnancy in rats [1]; [4]
  Adrenal Wt. mg + SE: 74.9 + 4.1 mg
  Fetal Viability: Normal Fetuses/Implantation Sites: 49/54
  Fetal Viability: Normal Fetuses/Implantation Sites (Percent): 91%
  Number of Rats Pregnant/Number of Rats Treated: 5/5
  Number of Rats Pregnant/Number of Rats Treated (Percent): 100%
Pregnancy in rats [1]; [5]
  Serum Progesterone (Percent Control): 111 Percent Control
  Serum Progesterone ng/ml + S.E.: 52.5 + 3.7 ng/ml
Pregnancy in rats [1]; [6]
  Adrenal Wt. mg + SE: 77.1 + 5.3 mg
  Fetal Viability: Normal Fetuses/Implantation Sites: 61/84
  Fetal Viability: Normal Fetuses/Implantation Sites (Percent): 73%
  Number of Rats Pregnant/Number of Rats Treated: 6/7
  Number of Rats Pregnant/Number of Rats Treated (Percent): 86%
Pregnancy in rats [1]; [7]
  Serum Progesterone (Percent Control): 75 Percent Control and 72 Percent Control
  Serum Progesterone ng/ml + S.E.: 35.5 + 6.2 ng/ml and 33.8 + 3.8 ng/ml
Pregnancy in rats [1]; [8]
  Adrenal Wt. mg + SE: 75.0 + 3.5 mg and 76.9 + 3.7 mg
  Fetal Viability: Normal Fetuses/Implantation Sites: 0/92 and 44/97
  Number of Rats Pregnant/Number of Rats Treated: 1/8 and 5/8
Pregnancy in rats [1]; [9]
  Serum Progesterone (Percent Control): 64 Percent Control
  Serum Progesterone ng/ml + S.E.: 30.2 + 3.8 ng/ml
Pregnancy in rats [1]; [10]
  Adrenal Wt. mg + SE: 65.7 + 2.5 mg
  Fetal Viability: Normal Fetuses/Implantation Sites: 13/110
  Fetal Viability: Normal Fetuses/Implantation Sites (Percent): 12%
  Number of Rats Pregnant/Number of Rats Treated: 3/10
  Number of Rats Pregnant/Number of Rats Treated (Percent): 30%
Pregnancy in rats [1]; [11]
  Serum Progesterone (Percent Control): 88 Percent Control
  Serum Progesterone ng/ml + S.E.: 41.4 + 7.1 ng/ml
Pregnancy in rats [1]; [12]
  Adrenal Wt. mg + SE: 74.5 + 3.1 mg
  Fetal Viability: Normal Fetuses/Implantation Sites: 25/103
  Fetal Viability: Normal Fetuses/Implantation Sites (Percent): 24%
  Number of Rats Pregnant/Number of Rats Treated: 4/10
  Number of Rats Pregnant/Number of Rats Treated (Percent): 40%
Pregnancy in rats [1]; [13]
  Serum Progesterone (Percent Control): 67 Percent Control
  Serum Progesterone ng/ml + S.E.: 31.5 + 6.7 ng/ml
Pregnancy in rats [1]; [14]
  Adrenal Wt. mg + SE: 66.4 + 3.3 mg
  Fetal Viability: Normal Fetuses/Implantation Sites: 19/101
  Fetal Viability: Normal Fetuses/Implantation Sites (Percent): 19%
  Number of Rats Pregnant/Number of Rats Treated: 2/9
  Number of Rats Pregnant/Number of Rats Treated (Percent): 22%
Pregnancy in rats [1]; [15]
  Serum Progesterone (Percent Control): 40 Percent Control
  Serum Progesterone ng/ml + S.E.: 19.0 + 3.7 ng/ml
Pregnancy in rats [1]; [16]
  Adrenal Wt. mg + SE: 83.5 + 4.8 mg
  Fetal Viability: Normal Fetuses/Implantation Sites: 24/128
  Fetal Viability: Normal Fetuses/Implantation Sites (Percent): 19%
  Number of Rats Pregnant/Number of Rats Treated: 2/11
  Number of Rats Pregnant/Number of Rats Treated (Percent): 18%
Pregnancy in rats [1]; [17]
  Serum Progesterone (Percent Control): 94 Percent Control
  Serum Progesterone ng/ml + S.E.: 44.3 + 5.3 ng/ml
Pregnancy in rats [1]; [18]
  Adrenal Wt. mg + SE: 72.0 + 2.5 mg
  Fetal Viability: Normal Fetuses/Implantation Sites: 85/99
  Fetal Viability: Normal Fetuses/Implantation Sites (Percent): 85%
  Number of Rats Pregnant/Number of Rats Treated: 8/9
  Number of Rats Pregnant/Number of Rats Treated (Percent): 89%
Pregnancy in rats [2]; [19]
  Adrenal Wt. mg + SE: 55.8 + 4.1 mg
  Fetal Viability: Normal Fetuses/Implantation Sites: 54/56
  Fetal Viability: Normal Fetuses/Implantation Sites (Percent): 96%
  Number of Rats Pregnant/Number of Rats Treated: 5/5
  Number of Rats Pregnant/Number of Rats Treated (Percent): 100%
Pregnancy in rats [2]; [20]
  Adrenal Wt. mg + SE: 64.1 + 5.2 mg
  Fetal Viability: Normal Fetuses/Implantation Sites: 56/77
  Fetal Viability: Normal Fetuses/Implantation Sites (Percent): 72%
  Number of Rats Pregnant/Number of Rats Treated: 6/6
  Number of Rats Pregnant/Number of Rats Treated (Percent): 100%
Pregnancy in rats [2]; [21]
  Adrenal Wt. mg + SE: 75.9 + 6.1 mg
  Fetal Viability: Normal Fetuses/Implantation Sites: 46/84
  Fetal Viability: Normal Fetuses/Implantation Sites (Percent): 55%
  Number of Rats Pregnant/Number of Rats Treated: 4/7
  Number of Rats Pregnant/Number of Rats Treated (Percent): 57%
Pregnancy in rats [2]; [22]
  Fetal Viability: Normal Fetuses/Implantation Sites: 11/112
  Fetal Viability: Normal Fetuses/Implantation Sites (Percent): 10%
  Number of Rats Pregnant/Number of Rats Treated: 1/9
  Number of Rats Pregnant/Number of Rats Treated (Percent): 11%
Pregnancy in rats [2]; [23]
  Adrenal Wt. mg + SE: 61.3 + 3.0 mg
  Fetal Viability: Normal Fetuses/Implantation Sites: 8/108
  Fetal Viability: Normal Fetuses/Implantation Sites (Percent): 7%
  Number of Rats Pregnant/Number of Rats Treated: 1/9
  Number of Rats Pregnant/Number of Rats Treated (Percent): 11%
Pregnancy in rats [2]; [24]
  Adrenal Wt. mg + SE: 60.3 + 1.6 mg
  Fetal Viability: Normal Fetuses/Implantation Sites: 10/106
  Fetal Viability: Normal Fetuses/Implantation Sites (Percent): 9%
  Number of Rats Pregnant/Number of Rats Treated: 1/10
  Number of Rats Pregnant/Number of Rats Treated (Percent): 10%
Pregnancy in rats [3]; [25]
  Serum Progesterone (Percent Control): 124 Percent Control
  Serum Progesterone ng/ml + S.E.: 54.1 + 2.6 ng/ml
Pregnancy in rats [3]; [26]
  Adrenal Wt. mg + SE: 83.4 + 4.0 mg
  Fetal Viability: Normal Fetuses/Implantation Sites: 80/82
  Fetal Viability: Normal Fetuses/Implantation Sites (Percent): 98%
  Number of Rats Pregnant/Number of Rats Treated: 7/7
  Number of Rats Pregnant/Number of Rats Treated (Percent): 100%
Pregnancy in rats [3]; [27]
  Serum Progesterone (Percent Control): 94 Percent Control
  Serum Progesterone ng/ml + S.E.: 40.8 + 2.2 ng/ml
Pregnancy in rats [3]; [28]
  Adrenal Wt. mg + SE: 91.6 + 4.6 mg
  Fetal Viability: Normal Fetuses/Implantation Sites: 94/103
  Fetal Viability: Normal Fetuses/Implantation Sites (Percent): 91%
  Number of Rats Pregnant/Number of Rats Treated: 8/8
  Number of Rats Pregnant/Number of Rats Treated (Percent): 100%
Pregnancy in rats [3]; [29]
  Serum Progesterone (Percent Control): 92 Percent Control
  Serum Progesterone ng/ml + S.E.: 40.0 + 3.5 ng/ml
Pregnancy in rats [3]; [30]
  Adrenal Wt. mg + SE: 93.1 + 4.0 mg
  Fetal Viability: Normal Fetuses/Implantation Sites: 27/87
  Fetal Viability: Normal Fetuses/Implantation Sites (Percent): 32%
  Number of Rats Pregnant/Number of Rats Treated: 3/6
  Number of Rats Pregnant/Number of Rats Treated (Percent): 50%
Pregnancy in rats [3]; [31]
  Serum Progesterone (Percent Control): 44 Percent Control
  Serum Progesterone ng/ml + S.E.: 22.1 + 6.0 ng/ml
Pregnancy in rats [3]; [32]
  Adrenal Wt. mg + SE: 78.8 + 3.9 mg
  Fetal Viability: Normal Fetuses/Implantation Sites: 36/119
  Fetal Viability: Normal Fetuses/Implantation Sites (Percent): 30%
  Number of Rats Pregnant/Number of Rats Treated: 5/10
  Number of Rats Pregnant/Number of Rats Treated (Percent): 50%
Pregnancy in rats [3]; [33]
  Serum Progesterone (Percent Control): 48 Percent Control
  Serum Progesterone ng/ml + S.E.: 24.3 + 7.6 ng/ml
Pregnancy in rats [3]; 16 mg/kg/day subcutaneously days 10-13 of pregnancy, serum day 11, determined by RIA at Interlab Associates (footnote 2)
  Serum Progesterone (Percent Control): 70 Percent Control
Pregnancy in rats [3]; 16 mg/kg/day subcutaneously days 10-13 of pregnancy, serum day 11, group whose values were determined by RIA at Interlab Associates (footnote 2)
  Serum Progesterone ng/ml + S.E.: 50.7 + 5.4 ng/ml
Pregnancy in rats [3]; [34]
  Adrenal Wt. mg + SE: 77.0 + 4.5 mg and 105.2 mg
  Fetal Viability: Normal Fetuses/Implantation Sites: 26/103 and 11/94
  Number of Rats Pregnant/Number of Rats Treated: 3/9 and 2/8
  Number of Rats Pregnant/Number of Rats Treated (Percent): 33% and 25%
Pregnancy in rats [3]; [35]
  Serum Progesterone (Percent Control): 70 Percent Control
  Serum Progesterone ng/ml + S.E.: 35.1 + 7.8 ng/ml
Pregnancy in rats [3]; [36]
  Adrenal Wt. mg + SE: 94.8 + 8.9 mg
  Fetal Viability: Normal Fetuses/Implantation Sites: 15/63
  Fetal Viability: Normal Fetuses/Implantation Sites (Percent): 24%
  Number of Rats Pregnant/Number of Rats Treated: 2/6
  Number of Rats Pregnant/Number of Rats Treated (Percent): 33%
